Experimental data published in patent US11406594B2, “Oleogel compositions for retinal drug delivery” (University of Florida Research Foundation, Inc., priority 2017, dated 2022).
Counter-ions that a name gives are not always drawn. Like-named read-outs stand apart in the source and are kept apart here.

Columns and labels:
[1] = Solubility limit of drug in oil phase of drug delivery composition (microscopy for visible drug particles)
Text: (§1) A significant parameter for the behavior of the disclosed drug delivery compositions is drug solubility in an aqueous environment and in hydrophobic environment, such as the soybean oil used in the examples described herein. Without wishing to be bound by a particular theory, it is possible that diffusion of the drug in the external medium (PBS) is a rate limiting step. Accordingly, solubility of the drug in this phase is crucial for modeling calculations of drug release. Solubility in the oil phase was estimated by preparing drug delivery compositions with different concentrations of drug, and observing the samples under a microscope.

[2] = Solubility limit of drug in PBS; details: 25 °C, aqueous buffer
Text: as §1

[3] = apparent wt %, soybean oil phase, estimated from visible drug particles

Solubility Limit in Oil Phase of Drug Delivery Composition [1, 3] | solubility ([2]; PBS) [mg/mL] | Solubility Limit in Oil Phase of Drug Delivery Composition [1] [%] | SMILES | solubility [2] [mg/mL]
1%-3% |  |  | C[C@@H]1C[C@H]2[C@@H]3CCC4=CC(=O)C=C[C@]4(C)[C@@]3(F)[C@@H](O)C[C@]2(C)[C@@]1(O)C(=O)CO [Dexamethasone] | 
0.1%-1% | > 0.089 |  | CC(C)(C)NC[C@H](O)COc1nsnc1N1CCOCC1 [Timolol Maleate] | 
 | > 0.089 | <0.1 | C[C@@H]1C[C@H]2[C@@H]3CCC4=CC(=O)C=C[C@]4(C)[C@@]3(F)[C@@H](O)C[C@]2(C)[C@@]1(O)C(=O)COP(=O)(O)O [Dexamethasone Phosphate] | 
 |  |  | CN[C@H](CC(C)C)C(=O)N[C@H]1C(=O)N[C@@H](CC(N)=O)C(=O)N[C@H]2C(=O)N[C@H]3C(=O)N[C@H](C(=O)N[C@H](C(=O)O)c4cc(O)cc(O)c4-c4cc3ccc4O)[C@H](O)c3ccc(c(Cl)c3)Oc3cc2cc(c3O[C@@H]2O[C@H](CO)[C@@H](O)[C@H](O)[C@H]2O[C@H]2C[C@](C)(N)[C@H](O)[C@H](C)O2)Oc2ccc(cc2Cl)[C@H]1O [Vancomycin Hydrochloride] | > 0.089
